Results as given in patent US20140243415A1, “COMPOUNDS INHIBITING GALECTIN-1 EXPRESSION, CANCER CELL PROLIFERATION, INVASION, AND TUMORIGENESIS” (ONCOETHIX SA, priority 2011, published 2014).

Columns and labels:
cultured fibroblasts = test: Antiproliferative effect in fibroblasts; format: cell-based
GAL1 mRNA = test: Real-time RT-PCR of GAL1 mRNA; format: cell-based, human; conditions: OTX-008 exposed cancer cells
Source text: The theoretical and practical aspects of real-time quantitative RT-PCR using the ABI Prism 7900 Sequence Detection System (Perkin-Elmer Applied Biosystems, Foster City, Calif., USA) have been described in detail elsewhere Results were expressed as n-fold differences in target gene expression relative to the TBP gene (an endogenous RNA control) and relative to a calibrator (1× sample), consisting of the cell line sample from our tested series that contained the smallest amount of target gene mRNA. Experiments were performed in duplicate.

SQ20B cells [1] = test: In vitro growth inhibition assay; format: cell-based, human; conditions: SQ20B, OTX-008 added to semaphorin-3A or lactose
Method: FIG. 5. Modulation of the galectin-1/semaphorin-3A/neuropilin system in SQ20B cells. A—Effects of galectin-1 (Gall), semaphorin-3A (Sema3A), lactose, with or without four different concentrations of OTX-008 on SQ20B growth at day 6. Embedded figure: Proliferation assay of SQ20B and SQ-shGAL1. B—In vitro matrigel invasion assay of SQ20B exposed to […] galectin-1, 1 μg/ml semaphorin-3A, 200 ng/ml lactose or 10 μM UO126 with or without 3 μM OTX-008. Embedded figure: In vitro matrigel invasion assay of SQ20B and SQ-shGAL1. Invasion was quantified after 48 h by counting the average number of invaded cells.
For proliferation assay, cells were seeded in 96-well tissue culture plates at a density of 1.5×10^3 cells/well. MTT assay was conducted daily to determine the number of viable cells in untreated control and treated group. Growth inhibition curves were plotted as a percentage of cells for each experimental condition.
Galectin-1 may form extracellular lattices counteracting the inhibitory properties of semaphorin-3A on neuropilin-1, eventually leading to the modulation of the vascular endothelial growth factor (VEGFR) and platelet derived growth factor (PDGFR) receptors, fibronectin, and laminin activity SQ20B cells expressed significant mRNA and protein levels of semaphorin-3A and neuropilin-1, PDGFRa&(, VEGF A-D, and VEGFR1-3 (Supplementary FIG. 2A). Thus, SQ20B cells were selected to evaluate the effects of OTX-008 on galectin-1/semaphorin-3A interactions. No difference between SQ20B cells growing in plastic or fibronectin- and laminin-coated plates. […] Galectin-1 and semaphorin-3A induced invasion was inhibited by OTX-008 mimicking the effects of lactose in this model.

SQ20B cells [2] = test: Cell cycle analysis by flow cytometry; format: cell-based, human; conditions: 72 h exposure
Method: Cell cycle analysis was assessed by flow cytometry. In brief, cells were seeded onto […] flasks and treated with various concentrations of OTX-008. After 72 h exposure, adherent and non-adherent cells were recovered, washed with PBS, fixed in 70% ethanol and stored at −20° C. until use. Cells were rehydrated in PBS, incubated for 30 minutes at 37° C. with 200 μg/ml RNAse A, and for 20 minutes at +4° C. with 40 μg/ml propidium iodide in the dark. The cell cycle distribution was determined with a flow cytometer (FACSCalibur and Cell Quest Pro software, BD Biosciences, Le-Pont-de-Claix, France).
To study the mechanism of OTX-008-induced inhibition of cell proliferation, the effect of OTX-008 on cell cycle in SQ20B cells was examined (FIG. 5B). […] Activation of cdc2 (cdk1) by de-phosphorylation of tyrosine 15 is required for G2/M transition. […] Thus, the level of phosphorylated cdc2 on tyrosine 15 and wee1 on serine 642 in SQ20B cell line were exposed to 3 μM OTX-008 for 72 h. […] In order to determine the potential relationship between the inhibition of MAPK signaling pathways and the effects on cell cycle by OTX-008, SQ20B cells were pretreated for 2 h with the ERK1/2 inhibitor UO126 followed by the OTX-008 addition for 72 hours.

γH2AX = γH2AX expression; format: cell-based, human
[3] = test system: A2780-1A9 ovarian xenografts; test: A2780-1A9 xenograft model; format: in vivo
Method: FIG. 6. […] A—The antitumor effects of OTX-008 on A2780-1A9 xenograft were compared to that of active doses of cisplatin and paclitaxel—solid line represents days of treatment. B—Immunohistochemistry of galectin-1, Ki67 (MIB-1) and CD31 on A2780-1A9 xenograft. C—Tumor growth and secondary tumor formation of SQ20B xenografts untreated and treated with 10 mg/kg/day OTX-008 and SQ-shGAL1 xenografts. Tumor volume was determined as 3.14(width2)/length—solid line represents days of treatment. D—Immunohistochemistry of galectin-1, MIB1, VEGFR2 and CD31 on SQ20B xenografts
The immunohistochemical procedure was performed on OCT-embedded subcutaneous tumor stained with H&E, MIB1 ( 1/400, Dako, Glostrup, Denmark), CD31 ( 1/200, Dako), VEGFR2 ( 1/125, Cell Signaling, Saint Quentin Yvelines, France) or galectin-1 (1:20, Abcam, Cambridge, Mass., USA) using an automated immunohistochemical stainer according to the manufacturer's guidelines (streptavidin-peroxidase protocol; Benchmark, Ventana, Tuscon, Ariz., USA). The images were captured and analyzed with a Zeiss observer Z1 microscope. Images quantification was performed using Histolab Software (Microvision, France) subtracting the background. Magnification ×20 and ×40.
A volume containing 8.10^6 A2780-1A9 cancer cells was injected s.c. into the right lateral flank of female nu/nu athymic mice. When tumors become palpable, mice were randomized and treated i.p. with PBS (3 days per week), 5 mg/kg OTX-008 (3 days per week), 6 mg/kg cisplatin (days 1, 8 and 15) or 10 mg/kg taxotere (days 1, 8 and 15). Tumor size was measured three times per week with caliper and tumor volume was calculated as (length×width^2)/2. At the end of the study, animals were sacrificed and tumors collected and frozen in OCT for molecular biology and immunohistochemical analysis. Mouse experiments were approved by the Animal Housing and Experiment Board of the French government.

endothelial cell = endothelial cell proliferation, migration, chick embryo chorioallantoic membrane assays; cited from earlier work

## CN(C)CCNC(=O)COc1c2cccc1Cc1cccc(c1OCC(=O)NCCN(C)C)Cc1cccc(c1OCC(=O)NCCN(C)C)Cc1cccc(c1OCC(=O)NCCN(C)C)C2 [OTX-008]
Cultured fibroblasts
  antiproliferative effect: no antiproliferative effect
GAL1 mRNA
  GAL1 mRNA expression: No change
SQ20B cells [1]
  antiproliferative effects in combination with semaphorin-3A or lactose: enhanced the antiproliferative effects
SQ20B cells [2]
  cell cycle distribution: dose-dependent accumulation of cells in G2/M phase
γH2AX
  γH2AX expression: no direct effects
[3]; 5 mg/kg OTX-008 i.p., 3 days per week
  tumor growth: Tumor growth inhibition
[3]; 5 mg/kg OTX-008 vs 6 mg/kg cisplatin, 10 mg/kg taxotere
  antitumor effects relative to cisplatin and docetaxel: comparable to that of cisplatin and docetaxel
[3]; A2780-1A9 tumors
  VEGFR-2 expression: decreased expression of VEGFR-2
  number of micro-vessels in tumors: decreased number of micro-vessel
  proliferation as measured by Ki67 expression: significantly reduced
[3]; nude mice
  toxicity at active doses: no toxicity
[3]; vs control
  vessels lumen surface area: significant decrease of the surface of vessels
[3]; vs non treated tumors
  galectin-1 expression in tumors (immunohistochemistry): significant lower galectin-1 expression
Endothelial cell
  angiogenesis inhibition in vitro: potent angiogenesis inhibitor
